Experimental findings from ChEMBL document CHEMBL1782017, “Synthesis and biological evaluation of new flavonoid fatty acid esters with anti-adipogenic and enhancing glucose consumption activities” (2011) are described below.

Assay [1] relates to 3T3-L1. Description: Increase in glucose consumption in differentiated mouse 3T3L1 cells in low-glucose medium at 50 ug/ml after 24 hrs by glucose-oxidase method relative to control. In kind it is functional.
In assay [2] the test system is 3T3-L1. Description: Antiproliferative activity against mouse 3T3L1 cells after 48 hrs by MTT assay. In kind it is functional. On the set-up: concentration or dose not given beside the values.
Assay [3] concerns 3T3-L1. Description: Glucose consumption in differentiated mouse 3T3L1 cells in high-glucose medium at 100 ug/ml after 24 hrs by glucose-oxidase method (Rvb =3.12 +/- 0.32 mmol/L). In kind it is functional.
Assay [4] deals with 3T3-L1. Description: Glucose consumption in differentiated mouse 3T3L1 cells in low-glucose medium at 100 ug/ml after 24 hrs by glucose-oxidase method (Rvb =2.35 +/- 0.19 mmol/L). In kind it is functional.
Assay [5] relates to 3T3-L1. Description: Inhibition of adipogenesis in mouse 3T3L1 cells at 100 umol/L after 8 days by Oil red O-staining. In kind it is functional. Conditions: 3T3-L1, 192 h.
For assay [6], the system named is 3T3-L1. Description: Glucose consumption in differentiated mouse 3T3L1 cells in low-glucose medium after 24 hrs by glucose-oxidase method. In kind it is functional, cell-based.
In assay [7] the test system is 3T3-L1. Description: Increase in glucose consumption in differentiated mouse 3T3L1 cells in low-glucose medium at 100 ug/ml after 24 hrs by glucose-oxidase method relative to control. In kind it is functional.
Assay [8] deals with 3T3-L1. Description: Glucose consumption in differentiated mouse 3T3L1 cells in low-glucose medium at 50 ug/ml after 24 hrs by glucose-oxidase method (Rvb =2.41 +/- 0.22 mmol/L). In kind it is functional.
For assay [9], the system named is 3T3-L1. Description: Glucose consumption in differentiated mouse 3T3L1 cells in high-glucose medium after 24 hrs by glucose-oxidase method. In kind it is functional, cell-based.
The test system of assay [10] is 3T3-L1. Description: Glucose consumption in differentiated mouse 3T3L1 cells in high-glucose medium at 50 ug/ml after 24 hrs by glucose-oxidase method (Rvb =3.06 +/- 0.29 mmol/L). In kind it is functional.
In assay [11] the test system is 3T3-L1. Description: Increase in glucose consumption in differentiated mouse 3T3L1 cells in high-glucose medium at 100 ug/ml after 24 hrs by glucose-oxidase method relative to control. In kind it is functional.

The structures appear in SMILES notation.

`CCCCCCCC/C=C\CCCCCCCC(=O)Oc1ccc2c(c1)O/C(=C\c1ccc(OC)cc1)C2=O`: the “fold change (FC)” value in the assay on 3T3-L1 [1], in the assay with 3T3-L1 [7] and in the assay on 3T3-L1 [11] was 2.39 throughout. Further, the Activity in the assay with 3T3-L1 [2] was 22.18%; in the assay with 3T3-L1 [3] it was 6.05 mmol/L; with 3T3-L1 [4], 5.61 mmol/L; in the assay on 3T3-L1 [6], “Dose-dependent effect”; in the assay with 3T3-L1 [8], 4.94 mmol/L; in the assay with 3T3-L1 [9] it was “Dose-dependent effect”. This molecule displayed an Activity in the assay with 3T3-L1 [10] of 5.48 mmol/L. Also, in the assay with 3T3-L1 [5], the inhibition – broadly, the percentage by which the read-out fell short of the control – at 100 µM was determined as 14.3%.
